According to US12312599B2, “Methods, compositions, and kits for producing beige adipocytes and treating metabolic disorders” (MaineHealth, priority 2018, dated 2025):

Test system: iPSCs
Experiment: Mesoderm induction of iPSCs: FOXF1 and IRX3 expression
Type: cell-based, human
Settings: SB added to in-house mesoderm induction medium
Description: PSCs were cultured in monolayer on hESC-qualified Matrigel-coated plates (Corning) and expanded in NutriStem hPSC XF Medium (Stemgent) and passaged with ReLeSR passaging reagent (STEMCELL Technologies). For mesoderm induction (Day 0), PSC colonies was dissociated with TrypLE cell dissociation reagent (Thermofisher) and plated on Matrigel coated plates in NutriStem medium containing 10 μM Y-27632 Rho kinase inhibitor (Calbiochem). The following day (Day 1), NutriStem medium was replaced with STEMdiff Mesoderm Induction Medium (MIM) (STEMCELL Technologies) and changed each day until day 5.
Note: Only use Y-27632 stock solutions that have been resuspended in DMSO. […] Conduct Mesoderm induction of iPSC in a laminar flow cabinet. • 3. Expand cells in NutriStem hPSC XF Medium overnight and change 100% of the medium without Y-27632 every 24 hours in a laminar flow cabinet for cell culture. When changing media, tilt plate up and allow media to pool at the bottom of wells. Aspirate the pooled medium without touching the surface of the plate. Replace with medium warmed to room temperature by pipetting 2 ml down the side of the wells. Cell Passaging • 1. Expand cell colonies until they have reached 70-80% confluence in high-density areas of the wells. High-density accumulation can occur along the edges of the well as well as the middle. Cells permitted to reach high density will lose their potential for differentiation after multiple passages. • 2. Prior to cell passage, warm cell wash buffer and NutriStem hPSC XF Medium to room temperature. Conduct cell passage in a laminar flow cabinet. • 3. Aspirate NutriStem hPSC XF Medium from wells with vacuum aspirator and wash with PBS without calcium or magnesium. Remove PBS and add 1 ml of ReLeSR reagent to side of well. Agitate plate to allow ReLeSR reagent to spread evenly on the surface. • 4. Aspirate ReLeSR reagent with vacuum aspirator after 30 seconds, which will leave behind a thin film of liquid. Incubate plate at 37° C. for 5-8 minutes undisturbed. • 5. Add fresh NutriStem hPSC XF Medium to wells and gently remove the cell colonies from the plate. Check that most cells have been dislodged from the plate surface with a light microscope. If not, rewash with more medium as needed. • 6. Transfer cell colony suspension in NutriStem hPSC XF Medium to Matrigel coated culture plates for further expansion (see Cell plating and culture above). Generation of iPSC Derived MSCs Mesoderm Induction of iPSC • 1. When iPSCs have reached 70-80% confluence, they will need to be passaged as single cells rather than colonies prior to mesoderm induction (day 0). • 2. Prepare for passage by warming cell wash buffer and NutriStem hPSC XF medium to room temperature and add Y-27632 Rho kinase inhibitor to medium at a final concentration of 10 μM. […]

In the case of NC(=O)c1ccc(-c2nc(-c3ccc4c(c3)OCO4)c(-c3ccccn3)[nH]2)cc1 [SB, SB431542], the FOXF1 expression is reported as “loss” and the IRX3 expression is reported as “increased expression”.
